Tests used:
[1] = system: NF-κB signaling pathway in LPS-treated RAW264.7 cells; assay: Western blotting of the NF-κB signaling pathway; assay type: cell-based, mouse; conditions: 100 ng/ml LPS 1 h, wash, CTP-NH2 3 h, western blot
Method: RAW264.7 cells plated at a density 1.8 × 10^6 cells/ml were incubated with LPS (100 ng/ml) at 37°C for 1 h. After that, the cells were washed extensively with PBS before being treated with CTP-NH2 for 3 h at 37°C, followed by lysis of the cells. Cytoplasmic and nuclear protein fractions were obtained using NR-PER Nuclear and Cytoplasmic Extraction Reagents (Thermo Fisher Scientific Inc., New Zwaland). The protein concentrations were assessed with a […] (KeyGEN Biotech. Nanjing, China) according to the manufacturer’s instructions. Afterwards, total protein (40 μg protein/lane) was separated on 10% SDS-PAGE gels and then transferred to PVDF membranes (Bio-Rad). Next, the membranes were blocked with 5% non-fat dried-milk containing 0.05% TBST and then immunoblotted with specific primary antibodies against IKK-β, p-IKK-β, IкB-α, p-IкB-α, NF-кB (p65), p-NF-кB (p-p65), and β-actin (Santa Cruz, CA, USA). After being washed with TBST, the membranes were incubated with HRP-conjugated secondary antibodies (HuaAn, Hangzhou, China). A ChemiDoc MP Imaging System (Bio-Rad, Hercules, CA, USA) was used to quantify the density of the specific proteins.

[2] = LPS neutralization, chromogenic end-point Tachypleus Amebocyte Lysate (TAL) assay; assay type: binding, E. coli; conditions: chromogenic TAL assay, LPS 1.0 U/ml, 0 to 64 μg/ml peptide
Method: The neutralization of LPS by the peptides was assessed through a quantitative Chromogenic End-point Tachypleus Amebocyte Lysate (CE TAL) assay using a QCL-1000 kit (XIAMEN BIOENDO TECHNOLOGY CO., China). LPS (E. coli, O111:B4, Sigma-Aldrich, USA) at a final concentration of 1.0 U/ml was incubated with various concentrations of the peptides (0 to 64 μg/ml final concentration) at 37°C for 15 min. Afterwards, the mixtures were incubated with TAL assay reagent at 37°C; for 6 min, and the absorbance was measured at 540 nm.

[3] = system: TLR4/MD-2 complex; assay: Surface plasmon resonance binding; conditions: SPR, Biacore X100, PBS with 0.05% Tween 20, 30 μl/min, 1:1 model, 0 to 10 μM
Method: SPR assays were performed using a Biacore X100 instrument (GE Healthcare, Pittsburgh, PA, USA). PBS containing 0.05% Tween 20 was used as the running buffer. The running buffer was continuously passed into the reaction chamber at 30 μl/min. Immobilization of CTP-NH2 on the chip surface was performed according to an amino coupling protocol. […] Running buffer was injected into the empty channel as a reference. To regenerate the chip surface at the end of each experiment, 10 mM Gly-HCl buffer (pH 2.5) was injected. ProteOn manager software (version 2.0) was used to analyze the experimental data. The binding curves were processed for the start injection alignment and baseline. A reference-subtracted sensorgram was then fitted to the curves describing a homogeneous 1:1 model. Data from the protein surfaces were grouped together to fit the association kinetic rate constant (Ka) and the dissociation rate constant (Kd). The equilibrium dissociation constant (KD) for the peptide-TLR4/MD-2 interaction was calculated as follows: […]

RWGRFLRKIRRFRRKDVT-NH2 [CTP-NH2, C-terminal amidated derivative peptide of CTP]
phosphorylation of IKK-β, IκB-α and NF-κB [1]: dampened levels of IKK-β | LPS neutralization activity [2]: stronger than that of CTP | Ka (association kinetic rate constant) [3]: 1.65e+07 M⁻¹ s⁻¹

Reference: article PMC7892475, “C-Terminal Amination of a Cationic Anti-Inflammatory Peptide Improves Bioavailability and Inhibitory Activity Against LPS-Induced Inflammation” (Frontiers in Immunology, 2021)
